Measured values reported in patent publication EP0342003B1, “Use of 15-ketoprostaglandin E or F compounds for uterine contraction” (Kabushiki Kaisha Ueno Seiyaku Oyo Kenkyujo, priority 1988, dated 1989).

Experiments:
ileum = experiment: Intestinal contraction of an isolated ileum section in a Magnus tube (reference example); type: cell-based, Wistar rat; conditions: result in words
Procedure: Test Example 3 (Intestinal contraction ... Reference example)
A section was cut off from ileum of a Wistar rat (male) and hung in a Magnus tube. The section was contracted several times by administering acetylcholine (1x10⁻⁶ g/ml) and received test compounds after giving two or more contractions of the same intensity. Contractions obtained by the test compounds were expressed as a ratio to the contraction by acetylcholine (1x10⁻⁶ g/ml) which was taken as 100%, and EC₅₀ values were calculated as a concentrations for 50% contraction.

uterus = experiment: Uterine contraction of an isolated uterus section in a Magnus tube; type: cell-based; conditions: Rattus norvegicus, ratio to contraction by oxytocin (1mU) taken as 100%; for activation at 1 µM: Dose 1x10^-6 M; for activation at 0.3 µM: Dose 3x10⁻⁷ M
Procedure: Test Example 1 (Uterine contraction)
An estrous rat (female, 150g) was used as test animals. The rat was sacrificed by bleeding and uterus was extirpated. A section of about 2.0cm was cut off and hung in a Magnus tube containing Tyrode solution or Beauvillain solution.
The section of uterus was held for about 5 minutes until it because stable and then contracted several times by administering oxytocin (1mU). After stable contraction was obtained, the section received test compounds. Contractions obtained by the test compounds were expressed as a ratio to the contraction by oxytocin which was taken as 100%. The results are shown in Table 1 (15-keto-PGE derivatives) and Table 2 (15-keto-PGF derivatives).

CCCCCC(=O)CC[C@@H]1[C@@H](C/C=C\CCCC(=O)OC)[C@@H](O)C[C@H]1O [13,14-dihydro-15-keto-PGF2α methyl ester]
intestinal contraction (ileum): without intestinal contraction

CCCCC(F)C(=O)CC[C@H]1[C@H](O)CC(=O)[C@@H]1CC(=O)CCCCC(=O)OCC (stereo partly shown) [X-1, 13,14-dihydro-6,15-diketo-16R,S-fluoro-PGE1 ethyl ester]
activation at 100 µM (uterus; Table 1, Dose 1x10^-4 M): 86%

CCCCC(F)C(=O)CC[C@H]1[C@H](C)CC(=O)[C@@H]1CC(=O)CCCCC(=O)OCC (stereo partly drawn) [X-2, 13,14-dihydro-6,15-diketo-16R,S-fluoro-11-dehydroxy-11R-methyl-PGE1 ethyl ester]
activation at 10 µM (uterus; Table 1, Dose 1x10^-5 M): 82%

CCCCC(O)C(=O)CC[C@H]1[C@H](O)CC(=O)[C@@H]1C/C=C\CCCC(=O)OCC (stereo partly shown) [X-3, 13,14-dihydro-15-keto-16R,S-hydroxy-PGE2 ethyl ester]
activation at 100 µM (uterus; Table 1, Dose 1x10^-4 M): 50%

CCCCC(F)C(=O)CC[C@H]1[C@H](O)CC(=O)[C@@H]1C/C=C\CCCC(=O)O (stereo partly shown) [X-4, 13,14-dihydro-15-keto-16R,S-fluoro-PGE2]
activation at 1 µM (uterus; Table 1): 87%

CCCCC(F)C(=O)CC[C@H]1[C@H](O)CC(=O)[C@@H]1C/C=C\CCCC(=O)OC (stereo partly shown) [X-5, 13,14-dihydro-15-keto-16R,S-fluoro-PGE2 methyl ester]
activation at 3 µM (uterus; Table 1, Dose 3x10^-6 M): 64%

CCCCC(F)C(=O)CC[C@H]1[C@H](O)CC(=O)[C@@H]1C/C=C\CCCC(=O)OCC (stereo partly shown) [X-6, 13,14-dihydro-15-keto-16R,S-fluoro-PGE2 ethyl ester]
activation at 10 µM (uterus; Table 1, Dose 1x10^-5 M): 89%

CCCCC(F)C(=O)CC[C@H]1[C@H](C)CC(=O)[C@@H]1C/C=C\CCCC(=O)OCC (stereo partly drawn) [X-7, 13,14-dihydro-15-keto-16R,S-fluoro-11-dehydroxy-11R-methyl-PGE2 ethyl ester]
activation at 100 µM (uterus; Table 1, Dose 1x10^-4 M): 50%

COCCCCC(C)(C)C(=O)CC[C@H]1[C@H](O)CC(=O)[C@@H]1C/C=C\CCCC(=O)OC [X-8]
activation at 10 µM (uterus; Table 1, Dose 1x10^-5 M): 64%

CCCCC(F)C(=O)/C=C/[C@H]1[C@H](O)CC(=O)[C@@H]1C/C=C\CCCC(=O)OC (stereo partly shown) [X-9]
activation at 10 µM (uterus; Table 1, Dose 1x10^-5 M): 84%

CCCCCC(F)C(=O)CC[C@H]1[C@H](O)CC(=O)[C@@H]1C/C=C\CCCC(=O)OC (stereo partly shown) [X-10]
activation at 10 µM (uterus; Table 1, Dose 1x10^-5 M): 80%

CCCCC(F)C(=O)/C=C/[C@H]1[C@H](O)CC(=O)[C@@H]1C/C=C\CCCC(=O)O (stereo partly shown) [X-11]
activation at 1 µM (uterus; Table 1): 80%

CCCCC(F)C(=O)CC[C@H]1[C@H](O)CC(=O)[C@@H]1CCCCCCC(=O)O (stereo partly shown) [X-12]
activation at 1 µM (uterus; Table 1): 34%

CCCCC(F)(F)C(=O)CC[C@H]1[C@H](O)CC(=O)[C@@H]1C/C=C\CCCC(=O)OC [X-13]
activation at 1 µM (uterus; Table 1): 63%

CCCCC(F)(F)C(=O)CC[C@H]1[C@H](O)CC(=O)[C@@H]1C/C=C\CCCC(=O)O [X-14]
activation at 1 µM (uterus; Table 1): 81%

O=C(O)CCC/C=C\C[C@H]1C(=O)C[C@@H](O)[C@@H]1CCC(=O)COc1cccc(C(F)(F)F)c1 [X-15]
activation at 1 µM (uterus; Table 1): 32%

CCCCC(F)C(=O)CC[C@@H]1[C@@H](C/C=C\CCCC(=O)O)[C@@H](O)C[C@H]1O (stereo partly drawn) [Y-1, 13,14-dihydro-15-keto-16R,S-fluoro-PGF2α]
activation at 0.3 µM (uterus; Table 2): 89%

CCCCC(F)C(=O)CC[C@@H]1[C@@H](C/C=C\CCCC(=O)OC)[C@@H](O)C[C@H]1O (stereo partly drawn) [Y-2, 13,14-dihydro-15-keto-16R,S-fluoro-PGF2α methyl ester]
activation at 3 µM (uterus; Table 2, Dose 3x10⁻⁶ M): 70%

CCCCC(F)(F)C(=O)CC[C@@H]1[C@@H](C/C=C\CCCC(=O)OC)[C@@H](O)C[C@H]1O [Y-3, 13,14-dihydro-15-keto-16,16-difluoro-PGF2α methyl ester]
activation at 3 µM (uterus; Table 2, Dose 3x10⁻⁶ M): 82%

CCCCC(F)C(=O)CC[C@@H]1[C@@H](C/C=C\CCCC(=O)OCC)[C@@H](O)C[C@H]1C (stereo partly drawn) [Y-4, 13,14-dihydro-15-keto-16R,S-fluoro-11-dehydroxy-11R-methyl-PGF2α ethyl ester]
activation at 100 µM (uterus; Table 2, Dose 1x10⁻⁴ M): 50%

CCCCCC(F)C(=O)CC[C@@H]1[C@@H](C/C=C\CCCC(=O)OC)[C@@H](O)C[C@H]1O (stereo partly drawn) [Y-5, 13,14-dihydro-15-keto-16R,S-fluoro-20-methyl-PGF2α methyl ester]
activation at 3 µM (uterus; Table 2, Dose 3x10⁻⁶ M): 42%

CCCCCCC(F)C(=O)CC[C@@H]1[C@@H](C/C=C\CCCC(=O)O)[C@@H](O)C[C@H]1O (stereo partly drawn) [Y-6, 13,14-dihydro-15-keto-20-ethyl-16R,S-fluoro-PGF2α]
activation at 0.3 µM (uterus; Table 2): 92%

CCCCCCC(F)C(=O)CC[C@@H]1[C@@H](C/C=C\CCCC(=O)OC)[C@@H](O)C[C@H]1O (stereo partly drawn) [Y-7, 13,14-dihydro-15-keto-20-ethyl-16R,S-fluoro-PGF2α methyl ester]
activation at 10 µM (uterus; Table 2, Dose 1x10⁻⁵ M): 85%

CCCCCCC(F)C(=O)CC[C@@H]1[C@@H](C/C=C\CCCC(=O)OC)[C@@H](O)C[C@H]1C (stereo partly drawn) [Y-8, 13,14-dihydro-15-keto-20-ethyl-16R,S-fluoro-11-dehydroxy-11R-methyl-PGF2α methyl ester]
activation at 100 µM (uterus; Table 2, Dose 1x10⁻⁴ M): 50%

COCCCCCC(=O)CC[C@@H]1[C@@H](C/C=C\CCCC(=O)OC)[C@@H](O)C[C@H]1O [Y-9, 13,14-dihydro-15-keto-20-methoxy-PGF2α methyl ester]
activation at 100 µM (uterus; Table 2, Dose 1x10⁻⁴ M): 50%

COC(=O)CCC/C=C\C[C@@H]1[C@@H](CCC(=O)COc2cccc(C(F)(F)F)c2)[C@H](O)C[C@@H]1O [Y-10, 13,14-dihydro-15-keto-16-desbutyl-16-m-trifluoromethylphenoxy-PGF2α methyl ester]
activation at 0.3 µM (uterus; Table 2): 92%

CCCCC(F)C(=O)/C=C/[C@@H]1[C@@H](C/C=C\CCCC(=O)OC)[C@@H](O)C[C@H]1O (stereo partly drawn) [Y-11, 15-keto-16R,S-fluoro-PGF2α methyl ester]
activation at 10 µM (uterus; Table 2, Dose 1x10⁻⁵ M): 95%

O=C(O)CCC/C=C\C[C@@H]1[C@@H](CCC(=O)COc2cccc(C(F)(F)F)c2)[C@H](O)C[C@@H]1O [Y-12, 13,14-dihydro-15-keto-16-desbutyl-16-m-trifluoromethylphenoxy-PGF2α]
activation at 0.1 µM (uterus; Table 2, Dose 1x10⁻⁷ M): 52%
